What was measured:
[1] = tested on: patients with treatment-resistant major depressive disorder (TRD); experiment: Phase 1/2 clinical trial of inhaled 5-MeO-DMT in patients with TRD
Description: Patients were assigned to different groups. In the context of the present invention, the group who received a single, 12 mg dose and the group who underwent an intra-day individualized dosing regimen (IDR) that allowed for multiple, escalating doses (6 mg, 12 mg and 18 mg) within a single day, driven by the intensity of the patient-reported psychedelic experience are of interest.
The data gathered include the assessment of the treated patients against several scales including the Montgomery-Åsberg Depression Rating Scale (MADRS) and the Brief Psychiatric Rating Scale (BPRS).
This trial was designed in two parts. Part A was an open-label, single-arm, single-dose Phase 1 trial with two dose levels (12 mg (n=4) and 18 mg (n=4)). […] The primary endpoint of Part B was to assess the effects on the severity of depression, as assessed by the proportion of patients in remission on day seven after dosing, defined as a MADRS total score of less than or equal to 10.

[2] = Pharmacokinetics of 5-MeO-DMT and bufotenine after inhalation; type: in vivo, human; settings: for Plasma concentration as % of Cmax: whole dose range tested (6 mg, 12 mg, 18 mg)
Description: This applies over the whole dose range tested (6 mg, 12 mg, 18 mg). […] Uptitration as disclosed herein will not lead to accumulation and thus not to higher plasma concentrations, for instance, 10 minutes, 2 hours, or 3 hours after administration.
Blood samples were obtained at 1; 2; 4; 7; 10; 15; 20; 30; 45 min and 1; 1.5; 2; 3; 4 hours after administration.
PK parameters were generated by algebraic analysis of the concentration versus time plots for each individual. The analysis was carried out using the software Phoenix WinNonlin 6.3.

[3] = 12 mg n=4, 2 hours after dose, baseline 16

COc1ccc2[nH]cc(CCN(C)C)c2c1 [5-MeO-DMT]
MADRS Suicidal Thoughts improvement ([1]; 12 mg n=4, 2 hours after dose, baseline 8): 5 points
MADRS Inner Tension improvement ([1]; 12 mg n=4, 2 hours after dose, baseline 13): 11
MADRS Concentration Difficulties improvement [1, 3]: 9
MADRS Inability to Feel improvement [1, 3]: 7 points
MADRS Lassitude improvement [1, 3]: 6
MADRS Pessimistic Thoughts improvement [1, 3]: 8
BPRS Blunted Affect improvement ([1]; 12 mg n=4, 3 hours after dose, baseline 11): 3 points
BPRS Emotional Withdrawal improvement ([1]; 12 mg n=4, 3 hours after dose, baseline 13): 2 points
BPRS Tension improvement ([1]; 12 mg n=4, 3 hours after dose, baseline 14): 5
BPRS Guilt Feelings improvement ([1]; 12 mg n=4, 3 hours after dose, baseline 18): 9
BPRS Anxiety improvement ([1]; 12 mg n=4, 3 hours after dose, baseline 25): 14
MADRS Inner Tension improvement ([1]; 12 mg n=4, day 1, baseline 13): 10
BPRS Tension improvement ([1]; 12 mg n=4, day 1, baseline 14): 8
MADRS Concentration Difficulties improvement ([1]; 12 mg n=4, day 1, baseline 16): 14
MADRS Lassitude improvement ([1]; 12 mg n=4, day 1, baseline 16): 16
MADRS Pessimistic Thoughts improvement ([1]; 12 mg n=4, day 1, baseline 16): 9
BPRS Guilt Feelings improvement ([1]; 12 mg n=4, day 1, baseline 18): 13
BPRS Anxiety improvement ([1]; 12 mg n=4, day 1, baseline 25): 19
MADRS Reduced Sleep percentage improvement ([1]; 12 mg n=4, day 7, baseline 12): 50.00%
MADRS Inner Tension improvement ([1]; 12 mg n=4, day 7, baseline 13): 8
BPRS Tension improvement ([1]; 12 mg n=4, day 7, baseline 14): 8
MADRS Concentration Difficulties improvement ([1]; 12 mg n=4, day 7, baseline 16): 13
MADRS Lassitude improvement ([1]; 12 mg n=4, day 7, baseline 16): 13
MADRS Pessimistic Thoughts improvement ([1]; 12 mg n=4, day 7, baseline 16): 8
BPRS Guilt Feelings improvement ([1]; 12 mg n=4, day 7, baseline 18): 13
BPRS Anxiety improvement ([1]; 12 mg n=4, day 7, baseline 25): 19
MADRS Suicidal Thoughts improvement ([1]; IDR n=8, 2 hours after last dose, baseline 11): 8 points
MADRS Inner Tension improvement ([1]; IDR n=8, 2 hours after last dose, baseline 26): 15
MADRS Lassitude improvement ([1]; IDR n=8, 2 hours after last dose, baseline 27): 17
MADRS Pessimistic Thoughts improvement ([1]; IDR n=8, 2 hours after last dose, baseline 28): 21
MADRS Concentration Difficulties improvement ([1]; IDR n=8, 2 hours after last dose, baseline 30): 19
MADRS Inability to Feel improvement ([1]; IDR n=8, 2 hours after last dose, baseline 36): 24 points
BPRS Emotional Withdrawal improvement ([1]; IDR n=8, 3 hours after last dose, baseline 13): 5 points
BPRS Blunted Affect improvement ([1]; IDR n=8, 3 hours after last dose, baseline 15): 4 points
BPRS Tension improvement ([1]; IDR n=8, 3 hours after last dose, baseline 16): 5
BPRS Guilt Feelings improvement ([1]; IDR n=8, 3 hours after last dose, baseline 34): 20
BPRS Anxiety improvement ([1]; IDR n=8, 3 hours after last dose, baseline 37): 18
BPRS Tension improvement ([1]; IDR n=8, day 1, baseline 16): 5
MADRS Reduced Sleep percentage improvement ([1]; IDR n=8, day 1, baseline 25): 52.00%
MADRS Inner Tension improvement ([1]; IDR n=8, day 1, baseline 26): 20
MADRS Lassitude improvement ([1]; IDR n=8, day 1, baseline 27): 22
MADRS Pessimistic Thoughts improvement ([1]; IDR n=8, day 1, baseline 28): 24
MADRS Concentration Difficulties improvement ([1]; IDR n=8, day 1, baseline 30): 29
BPRS Guilt Feelings improvement ([1]; IDR n=8, day 1, baseline 34): 23
BPRS Anxiety improvement ([1]; IDR n=8, day 1, baseline 37): 21
BPRS Tension improvement ([1]; IDR n=8, day 7, baseline 16): 6
MADRS Reduced Sleep percentage improvement ([1]; IDR n=8, day 7, baseline 25): 64.00%
MADRS Inner Tension improvement ([1]; IDR n=8, day 7, baseline 26): 14
MADRS Lassitude improvement ([1]; IDR n=8, day 7, baseline 27): 24
MADRS Pessimistic Thoughts improvement ([1]; IDR n=8, day 7, baseline 28): 25
MADRS Concentration Difficulties improvement ([1]; IDR n=8, day 7, baseline 30): 21
BPRS Guilt Feelings improvement ([1]; IDR n=8, day 7, baseline 34): 24
BPRS Anxiety improvement ([1]; IDR n=8, day 7, baseline 37): 20
SAEs ([1]; Part A): No SAEs
Patients with MADRS remission (total score <=10) ([1]; Part A, 12 mg n=4, day seven): 50%
Mean MADRS change from baseline ([1]; Part A, 12 mg, day seven): −21.0
Mean MADRS change from baseline, percent ([1]; Part A, 12 mg, day seven): −65%
Patients with MADRS remission (total score <=10) ([1]; Part A, 18 mg n=4, day seven): 25%
Mean MADRS change from baseline, percent ([1]; Part A, 18 mg, day seven): −41%
Plasma concentration as % of Cmax ([2]; 10 minutes after inhalation): ≤ 10%
Plasma concentration as % of Cmax ([2]; 2 hours after inhalation): ≤ 1%
Detectability in the plasma ([2]; 3 hours after inhalation, whole dose range tested): no longer detectable
Pharmacokinetic measurements under uptitration dosing schemes versus single doses ([2]; dosing schemes relying on uptitration): Substantially similar results
